Here are results for 13 compounds from ChEMBL document CHEMBL3414426, “Xanthone analogues as potent modulators of intestinal P-glycoprotein” (Eur J Med Chem, 2015).

Activity calls are given as the source filed them. No cut-off for these calls is given here.

Broadly, the AUC(0-t) is the area under the concentration-time curve up to a stated or last time point. A word on the Cmax: it is the peak of the concentration-time curve. A word on the bioavailability: it is dose-corrected exposure relative to a reference, in per cent. The term Tmax denotes the time from dosing to the highest level. As usually defined, the TGI is how far tumour growth fell short of that in controls.

Data set [1] addresses T1, ATP-dependent translocase ABCB1 (Homo sapiens, UniProt P08183). In words: Inhibition of P-glycoprotein in human MCF7/ADR cells assessed as daunomycin IC50 at 100 uM after 2 hrs. The format is cell-based. Particulars: nci/adr-res.
Data set [2] is described as follows: AUC (0 to t) in Sprague-Dawley rat at 5 mg/kg, iv. The format is ADME, organism-based. Also on record: dose 5 mg/kg, route intravenous. The note with it: plasma.
For data set [3], the system named is Mus musculus. In words: Toxicity in human A549 cells xenografted in BALB/c athymic nude male mouse assessed as maximum weight loss at 10 mg/kg, po in presence of 40 mg/kg, po PTX administered on day 1, 5, 9 and 13 post tumor implantation. The note with it: in vivo. The format is organism-based. A general note: Xenograft models place foreign cells or tissue in a host animal.

Data set [4] concerns A549. In words: Anticancer activity against human A549 cells xenografted in BALB/c athymic nude male mouse assessed as mouse survival rate at 10 mg/kg, po in presence of 40 mg/kg, po PTX administered on day 1, 5, 9 and 13 post tumor implantation. It counts as functional.
Data set [5] in a line: Cmax in Sprague-Dawley rat at 15 mg/kg, po. The format is ADME, organism-based. Set-up: dose 15 mg/kg, route oral. The note with it: in vivo.
Data set [6] relates to Mus musculus. In words: Toxicity in human A549 cells xenografted in BALB/c athymic nude male mouse assessed as maximum weight loss at 5 mg/kg, po in presence of 40 mg/kg, po PTX administered on day 1, 5, 9 and 13 post tumor implantation. Particulars: in vivo. The format is organism-based.
Data set [7] is described as follows: Elimination rate constant in Sprague-Dawley rat at 5 mg/kg, iv. It counts as ADME, organism-based. Set-up: dose 5 mg/kg, route intravenous. The note with it: in vivo.
Data set [8] is described as follows: Absolute bioavailability in Sprague-Dawley rat at 15 mg/kg, po. Particulars: in vivo. The format is ADME, organism-based.
Data set [9] can be described thus: Initial drug concentration in Sprague-Dawley rat blood at 5 mg/kg, iv. It counts as ADME, organism-based. Also on record: dose 5 mg/kg, route intravenous.
Data set [10] relates to A549. In words: Anticancer activity against human A549 cells xenografted in BALB/c athymic nude male mouse assessed as mouse survival rate at 5 mg/kg, po in presence of 40 mg/kg, po PTX administered on day 1, 5, 9 and 13 post tumor implantation. It counts as functional.
The next data set relates to NCI/ADR-RES. Put plainly: Effect on P-glycoprotein expression in human MCF7/ADR cells at 100 uM after 2 hrs by Western blot analysis. It counts as functional, cell-based. On the technique in general: In western blotting, separated proteins are transferred to a membrane and probed.
Data set [11] has as its target T1, ATP-dependent translocase ABCB1. Put plainly: Inhibition of P-glycoprotein in human MCF7/ADR cells assessed as increase in [3H]-DNM accumulation at 100 uM after 2 hrs relative untreated control. The format is cell-based. Set-up: Activity: scale not given: the % may be the effect or the level left. Particulars: nci/adr-res.
Data set [12] in a line: Elimination half life in Sprague-Dawley rat at 15 mg/kg, po. It counts as ADME, organism-based. Also on record: dose 15 mg/kg, route oral. Particulars: in vivo, read-out: beta t1/2 (converted).
Data set [13] in a line: Tmax in Sprague-Dawley rat at 15 mg/kg, po. The format is ADME, organism-based. Also on record: dose 15 mg/kg, route oral. Particulars: in vivo.
The subject of data set [14] is A549. In words: Anticancer activity against human A549 cells xenografted in BALB/c athymic nude male mouse assessed as tumor growth inhibition rate at 5 mg/kg, po in presence of 40 mg/kg, po PTX administered on day 1, 5, 9 and 13 post tumor implantation. It counts as functional.
Data set [15] has as its system A549. Put plainly: Anticancer activity against human A549 cells xenografted in BALB/c athymic nude male mouse assessed as mouse tumor growth inhibition rate at 10 mg/kg, po in presence of 40 mg/kg, po PTX administered on day 1, 5, 9 and 13 post tumor implantation. The format is functional.
A further data set deals with P-glycoprotein (ABCB1) (Homo sapiens, UniProt P08183). Put plainly: (§1) Inhibition of P-glycoprotein in human MCF7/ADR cells assessed as reduction in [3H]-DNM efflux ratio at 100 uM after 1 hr relative untreated control. It counts as cell-based, NCI/ADR-RES. The note with it: MCF7/ADR cells (NCI/ADR-RES), probe [3H]-DNM, read-out: Activity.
P-glycoprotein (ABCB1), sequence (P08183 whole entry): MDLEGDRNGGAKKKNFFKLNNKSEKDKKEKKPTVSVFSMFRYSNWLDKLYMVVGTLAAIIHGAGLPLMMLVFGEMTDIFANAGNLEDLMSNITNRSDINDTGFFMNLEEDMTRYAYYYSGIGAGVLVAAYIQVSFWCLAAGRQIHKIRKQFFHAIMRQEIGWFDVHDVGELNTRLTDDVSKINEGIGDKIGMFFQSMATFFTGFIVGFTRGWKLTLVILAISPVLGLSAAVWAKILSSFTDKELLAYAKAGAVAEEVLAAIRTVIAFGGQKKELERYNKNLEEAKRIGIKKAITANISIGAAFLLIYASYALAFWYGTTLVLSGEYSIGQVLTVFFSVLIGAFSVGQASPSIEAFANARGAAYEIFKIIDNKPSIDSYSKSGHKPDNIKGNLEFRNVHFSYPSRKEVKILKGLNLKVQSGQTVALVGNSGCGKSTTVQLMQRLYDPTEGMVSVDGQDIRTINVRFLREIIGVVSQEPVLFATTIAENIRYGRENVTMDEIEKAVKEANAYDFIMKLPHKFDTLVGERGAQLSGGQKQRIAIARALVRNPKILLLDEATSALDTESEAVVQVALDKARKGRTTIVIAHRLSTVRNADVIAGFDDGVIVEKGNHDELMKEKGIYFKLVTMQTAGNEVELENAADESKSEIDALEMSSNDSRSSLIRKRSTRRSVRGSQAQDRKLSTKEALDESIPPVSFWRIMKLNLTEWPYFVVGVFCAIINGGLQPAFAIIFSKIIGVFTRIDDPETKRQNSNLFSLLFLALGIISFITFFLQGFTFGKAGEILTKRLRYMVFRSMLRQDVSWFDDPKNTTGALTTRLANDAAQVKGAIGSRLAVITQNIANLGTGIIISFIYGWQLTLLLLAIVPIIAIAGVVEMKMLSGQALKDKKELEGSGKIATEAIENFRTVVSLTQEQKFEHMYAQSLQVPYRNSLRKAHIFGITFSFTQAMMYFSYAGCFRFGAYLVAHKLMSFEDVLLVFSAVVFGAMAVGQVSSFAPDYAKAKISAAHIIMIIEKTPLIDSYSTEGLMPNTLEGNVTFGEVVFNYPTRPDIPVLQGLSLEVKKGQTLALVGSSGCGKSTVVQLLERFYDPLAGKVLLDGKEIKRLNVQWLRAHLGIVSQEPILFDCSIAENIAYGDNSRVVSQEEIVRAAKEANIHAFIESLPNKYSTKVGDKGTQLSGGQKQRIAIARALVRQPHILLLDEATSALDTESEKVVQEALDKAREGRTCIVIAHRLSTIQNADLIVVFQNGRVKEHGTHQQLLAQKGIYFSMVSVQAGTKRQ
Another data set has as its system Rattus norvegicus. In words: Absolute bioavailability in Sprague-Dawley rat at 5 mg/kg, iv. It counts as ADME, organism-based. The note with it: in vivo.
Data set [16] can be described thus: AUC (0 to t) in Sprague-Dawley rat at 15 mg/kg, po. It counts as ADME, organism-based. Set-up: dose 15 mg/kg, route oral. Particulars: plasma.
Data set [17] is described as follows: Elimination rate constant in Sprague-Dawley rat at 15 mg/kg, po. Set-up: dose 15 mg/kg, route oral. The format is ADME, organism-based. The note with it: in vivo.
Data set [18] is described as follows: Elimination half life in Sprague-Dawley rat at 5 mg/kg, iv. The note with it: in vivo, read-out: beta t1/2 (converted). Set-up: dose 5 mg/kg, route intravenous. The format is ADME, organism-based.
Data set [19] concerns the target T1, ATP-dependent translocase ABCB1. Described as §1. The note with it: nci/adr-res, 1 h, 100 µM. It counts as cell-based, NCI/ADR-RES.

T1 sequence (P08183 whole entry): as above

For the compound `COc1cccc2c(=O)c3c(O)cc(OCC(O)CO)cc3oc12` (configuration not stated), the “inhibition (INH)” value in data set [1] was “Active”.

For the compound `COc1cccc2c(=O)c3c(OCC4CS4)cc(OCC4CS4)cc3oc12` (configuration not stated), the “inhibition (INH)” value in [1] was “Active”.

Turning to `COc1cccc2c(=O)c3c(O)cc(OCC4CS4)cc3oc12` (configuration not stated), the “inhibition (INH)” value in [1] is on record as “Active”.

Consider `O=c1c2ccccc2sc2cc(OCC3CS3)cc(O)c12` (configuration not stated), for which, in [1], the “inhibition (INH)” value was “Active”.

Regarding `COc1cccc2c(=O)c3c(O)cc(OCC(S)CCl)cc3oc12` (configuration not stated), the “inhibition (INH)” value in [1] was “Active”.

Turning to `COc1cccc2c(=O)c3c(O)cc(OCC(O)CCl)cc3oc12` (configuration not stated), the “inhibition (INH)” value in [1] was “Active”.

Take `O=c1c2ccccc2oc2cc(OCC3CS3)cc(OCC3CS3)c12` (configuration not stated): the “inhibition (INH)” value in data set [1] is listed as “Active”.

As to `O=c1c2ccccc2oc2cc(OCC(O)CCl)cc(O)c12` (configuration not stated), the “inhibition (INH)” value in [1] is recorded as “Active”.

Take `O=c1c2ccccc2sc2cc(OCC(S)CCl)cc(O)c12` (configuration not stated): the “inhibition (INH)” value in data set [1] is “Active”.

For `O=c1c2ccccc2sc2cc(OCC(O)CCl)cc(O)c12` (configuration not stated), the AUC(0-t) turned out to be 1250 ng·h/mL in [2] and 23 ng·h/mL in [16]. Further, the Activity in the data set on Mus musculus [3] was 3.52%; with Mus musculus [6], 6.19%; in [11] it was 707%. In addition, the Survival with A549 [4] was 100%; in the data set on A549 [10], 80%. The Cmax in data set [5] came out at 49 ng/mL. The k el is 0.000569 s⁻¹ in [7] and 0.000539 s⁻¹ in data set [17]. The same compound came in with a bioavailability in data set [8] of 0.6%. In data set [9], the C0 was found to be 44300 ng/mL. The “inhibition (INH)” value in data set [1] is listed as “Active”. In the data set with NCI/ADR-RES, the outcome was inactive. Further, the half-life is 23.4 min in data set [12] and 21 min in data set [18]. In data set [13], the Tmax came out at 12.6 min. Moreover, the TGI with A549 [14] is given as 61.6%; with A549 [15], 52.6%. Besides, the inhibition at 1 h, 100 µM on P-glycoprotein (ABCB1) stood at 70.4%. The compound also yielded a F in the data set with Rattus norvegicus of 100%.

With `O=c1c2ccccc2oc2cc(OCC(O)CO)cc(O)c12` (configuration not stated), in [1], the “inhibition (INH)” value is reported as “Active”.

In the case of `COc1cc(OCC(O)CCl)cc2oc3ccccc3c(=O)c12` (configuration not stated), the “inhibition (INH)” value is on record as “Active” in data set [1], “Not Active” in data set [11] and “Not Active” in [19]. The outcome in the data set on NCI/ADR-RES was inactive.

Consider `COc1ccc(CCN(C)CCCC(C#N)(c2ccc(OC)c(OC)c2)C(C)C)cc1OC` (configuration not stated) [VERAPAMIL], for which, in data set [1], the “inhibition (INH)” value is listed as “Active”. In data set [11], the Activity was 319%.
